# Measured values: US11072626B2, “Small molecule inhibitors of Galectin-3” (BRISTOL-MYERS SQUIBB COMPANY, priority 2017, dated 2021)
# Target: His-tagged recombinant human Gal-3 (hGal-3) (Homo sapiens (Human), UniProt P17931)
# Experiment: Gal-3 HTRF assay (hGal-3 / B-ASF)
# Type: binding
# Conditions: 15 nM hGal-3, 15 nM B-ASF, table after Example 4, read-out: hGal3 IC50
# Method: ASSAY BUFFER Composition: 25 mM HEPES, 100 mM NaCl, 0.005% Tween 20, 0.05% BSA prepared in sterile water (all reagents from Sigma)
# Positive Control: 100% DMSO (1 μl)+His-tagged hGal-3 (20 μL)+B-ASF (20 μl)+Anti-His Terbium Antibody (5 μl)+Strep d2 Antibody (5 μl).
# Negative Control: 100% DMSO (1 μl)+His-tagged hGal-3 (20μL)+Anti His Terbium Antibody (5 μl)+Strep d2 Aantibody (5 μl).
# PROTOCOL: The Gal-3 assays were performed in 384 white Opti plates in three replicates at room temperature with gentle shaking at 250-300 rpm From the original stocks, […] working stock concentrations of His-tagged recombinant human Gal-3 (hGal-3) and that of B-ASF were prepared. From the working stock, 20 μl of hGal-3 (15 nM) and 20 μl B-ASF (15 nM) were added to the plates. In Negative Control, only hGal-3 was added. A concentration range of 50× working stocks were prepared for the compounds in 100% DMSO. Aliquots of 1 uL of the compounds were added to the wells and pre-incubated with 20 μl hGal-3 per well for 30 minutes Then 20 μl B-ASF were added and incubated for another 1 hour. To detect the signal, 5 μ(final conc. of 1.0 nM) terbium labelled Anti-His antibody was added and incubated for 30 min followed by adding 5 μ(final conc. of 20 nM) Streptavidin d2 and incubation for another 1 hour. The assay signal was detected using HTRF screen protocol (Excitation wavelength=340 nm, emission wavelength=615 nm/665 nm) on Envision 2104 Multilabel Reader. Data analysed using Toolset and Curve Master. Results are reported in the experimental section (IC50 in μM).
# Sequence of His-tagged recombinant human Gal-3 (hGal-3) (P17931 whole entry): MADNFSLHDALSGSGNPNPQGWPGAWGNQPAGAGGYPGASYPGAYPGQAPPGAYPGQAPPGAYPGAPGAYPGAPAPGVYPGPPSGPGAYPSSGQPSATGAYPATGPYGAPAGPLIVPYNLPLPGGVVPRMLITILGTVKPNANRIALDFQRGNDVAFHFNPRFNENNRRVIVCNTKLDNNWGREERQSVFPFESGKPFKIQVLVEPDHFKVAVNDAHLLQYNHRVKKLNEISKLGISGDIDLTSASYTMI
row,Structure (SMILES),IC50 [nM]
1,"O=C(O)CO[C@@H]1[C@@H](n2cc(-c3cc(F)c(F)c(F)c3)nn2)[C@@H](O)[C@@H](CO)O[C@@H]1Sc1ccc(Cl)c(Cl)c1 [compound 2, 2-(((2R,3R,4S,5R,6R)-2-((3,4-dichlorophenyl)thio)-5-hydroxy-6-(hydroxymethyl)-4-(4-(3,4,5-trifluorophenyl)-1H-1,2,3-triazol-1-yl)tetrahydro-2H-pyran-3-yl)oxy)acetic acid]",46

# Same assay, conditions: 15 nM hGal-3, 15 nM B-ASF, table after Example 20, read-out: hGal3 IC50
row,Structure (SMILES),IC50 [nM]
1,O=C(CO[C@@H]1[C@@H](n2cc(-c3cc(F)c(F)c(F)c3)nn2)[C@@H](O)[C@@H](CO)O[C@@H]1Sc1ccc(Cl)c(Cl)c1)NC1CC2(CC(O)C2)C1 (stereo partly shown) [Example 34],660
2,O=C1CN(C(=O)CO[C@@H]2[C@@H](n3cc(-c4cc(F)c(F)c(F)c4)nn3)[C@@H](O)[C@@H](CO)O[C@@H]2Sc2ccc(Cl)c(Cl)c2)CCN1 [Example 26],86
3,CC(=O)NC1CN(C(=O)CO[C@@H]2[C@@H](n3cc(-c4cc(F)c(F)c(F)c4)nn3)[C@@H](O)[C@@H](CO)O[C@@H]2Sc2ccc(Cl)c(Cl)c2)C1 [Example 30],800
4,O=C(CO[C@@H]1[C@@H](n2cc(-c3cc(F)c(F)c(F)c3)nn2)[C@@H](O)[C@@H](CO)O[C@@H]1Sc1ccc(Cl)c(Cl)c1)N1CCC[C@H]1CO [Example 29],72
5,O=C(CO[C@@H]1[C@@H](n2cc(-c3cc(F)c(F)c(F)c3)nn2)[C@@H](O)[C@@H](CO)O[C@@H]1Sc1ccc(Cl)c(Cl)c1)N1CC[C@H](O)C1 [Example 28],48
6,O=C(CO[C@@H]1[C@@H](n2cc(-c3cc(F)c(F)c(F)c3)nn2)[C@@H](O)[C@@H](CO)O[C@@H]1Sc1ccc(Cl)c(Cl)c1)N1CCCCC1 [Example 21],225
7,O=C(CO[C@@H]1[C@@H](n2cc(-c3cc(F)c(F)c(F)c3)nn2)[C@@H](O)[C@@H](CO)O[C@@H]1Sc1ccc(Cl)c(Cl)c1)N1CCCC(F)(F)C1 [Example 24],150
8,"O=C(CO[C@@H]1[C@@H](n2cc(-c3cc(F)c(F)c(F)c3)nn2)[C@@H](O)[C@@H](CO)O[C@@H]1Sc1ccc(Cl)c(Cl)c1)N1CCOCC1 [Example 25, 2-(((2R,3R,4S,5R,6R)-2-((3,4-dichlorophenyl)thio)-5-hydroxy-6-(hydroxymethyl)-4-(4-(3,4,5-trifluorophenyl)-1H-1,2,3-triazol-1-yl)tetrahydro-2H-pyran-3-yl)oxy)-1-morpholinoethan-1-one]",76

# Same assay, conditions: 15 nM hGal-3, 15 nM B-ASF, table after Example 46, read-out: hGal3 IC50
row,Structure (SMILES),IC50 [nM]
1,O=C(O)CO[C@@H]1[C@@H](n2cc(-c3ccc(F)cn3)nn2)[C@@H](O)[C@@H](CO)O[C@@H]1Sc1ccc(Cl)c(Cl)c1 [Example 58],840
2,O=C(O)CO[C@@H]1[C@@H](n2cc(-c3ccc(Cl)cc3)nn2)[C@@H](O)[C@@H](CO)O[C@@H]1Sc1ccc(Cl)c(Cl)c1 [Example 50],620
3,COC(=O)c1ccc(-c2cn([C@H]3[C@@H](O)[C@@H](CO)O[C@H](Sc4ccc(Cl)c(Cl)c4)[C@@H]3OCC(=O)O)nn2)cc1 [Example 56],7430
4,Cc1cccc(-c2cn([C@H]3[C@@H](O)[C@@H](CO)O[C@H](Sc4ccc(Cl)c(Cl)c4)[C@@H]3OCC(=O)O)nn2)c1 [Example 49],1340

# Same assay, conditions: 15 nM hGal-3, 15 nM B-ASF, three replicates, room temperature, read-out: hGal3 IC50
row,Structure (SMILES),IC50 [nM]
1,"CC(O[C@@H]1[C@@H](n2cc(-c3cc(F)c(F)c(F)c3)nn2)[C@@H](O)[C@@H](CO)O[C@@H]1S(=O)(=O)c1ccc(Cl)c(Cl)c1)C(=O)O (single isomer, unassigned) [Example 39 (isomer-1)]",360
2,"O=C(O)CO[C@@H]1[C@@H](n2cc(-c3cc(F)c(F)c(F)c3)nn2)[C@@H](O)[C@@H](CO)O[C@@H]1[S+]([O-])c1ccc(Cl)c(Cl)c1 (single isomer, unassigned) [18 (isomer-2)]",100
3,"OC[C@H]1O[C@@H](Sc2ccc(Cl)c(Cl)c2)[C@H](F)[C@@H](n2cc(-c3cc(F)c(F)c(F)c3)nn2)[C@H]1O (single isomer, unassigned) [Example 62 (isomer-2)]",10000
4,"O=C(O)CO[C@@H]1[C@@H](n2cnc(-c3cccc(F)c3)c2)[C@@H](O)[C@@H](CO)O[C@@H]1Sc1ccc(Cl)c(Cl)c1 [Example 63, 2-(((2R,3R,4S,5R,6R)-2-((3,4-dichlorophenyl)thio)-4-(4-(3-fluorophenyl)-1H-imidazol-1-yl)-5-hydroxy-6-(hydroxymethyl)tetrahydro-2H-pyran-3-yl)oxy)acetic acid]",1560
5,"CO[C@@H]1[C@@H](n2cc(-c3cc(F)c(F)c(F)c3)nn2)[C@@H](O)[C@@H](CO)O[C@@H]1[S+]([O-])c1ccc(Cl)c(Cl)c1 (single isomer, unassigned) [Example 2 (isomer-2)]",155
6,"CO[C@@H]1[C@@H](n2cc(-c3cc(F)c(F)c(F)c3)nn2)[C@@H](O)[C@@H](CO)O[C@@H]1[S+]([O-])c1ccc(Cl)c(Cl)c1 (single isomer, unassigned) [Example 2 (isomer-1)]",29
7,"CCO[C@@H]1[C@@H](n2cc(-c3cc(F)c(F)c(F)c3)nn2)[C@@H](O)[C@@H](CO)O[C@@H]1Sc1ccc(Cl)c(Cl)c1 [Example 4, (2R,3R,4S,5R,6R)-6-((3,4-dichlorophenyl)thio)-5-ethoxy-2-(hydroxymethyl)-4-(4-(3,4,5-trifluorophenyl)-1H-1,2,3-triazol-1-yl)tetrahydro-2H-pyran-3-ol]",1050
8,"O=C(O)/C=C/O[C@@H]1[C@@H](n2cc(C3CC3)nn2)[C@@H](O)[C@@H](CO)O[C@@H]1Sc1ccc(Cl)c(Cl)c1 [Example 41, (E)-3-(((2R,3R,4S,5R,6R)-4-(4-cyclopropyl-1H-1,2,3-triazol-1-yl)-2-((3,4-dichlorophenyl)thio)-5-hydroxy-6-(hydroxymethyl)tetrahydro-2H-pyran-3-yl)oxy)acrylic acid]",2740
9,"O=S(=O)(c1ccc(Cl)c(Cl)c1)[C@@H]1C[C@@H](n2cc(-c3cc(F)c(F)c(F)c3)nn2)[C@@H](O)[C@@H](CO)O1 [Example 61, (2R,3R,4R,6R)-6-((3,4-dichlorophenyl)sulfonyl)-2-(hydroxymethyl)-4-(4-(3,4,5-trifluorophenyl)-1H-1,2,3-triazol-1-yl)tetrahydro-2H-pyran-3-ol]",160
10,"O=C(CO[C@@H]1[C@@H](n2cc(-c3cc(F)c(F)c(F)c3)nn2)[C@@H](O)[C@@H](CO)O[C@@H]1Sc1ccc(Cl)c(Cl)c1)N1CCC(O)CC1 [Example 20, 2-(((2R,3R,4S,5R,6R)-2-((3,4-dichlorophenyl)thio)-5-hydroxy-6-(hydroxymethyl)-4-(4-(3,4,5-trifluorophenyl)-1H-1,2,3-triazol-1-yl)tetrahydro-2H-pyran-3-yl)oxy)-1-(4-hydroxypiperidin-1-yl)ethan-1-one]",40
11,"CO[C@@H]1[C@@H](n2cc(C(=O)NC3CC3)nn2)[C@@H](O)[C@@H](CO)O[C@@H]1Sc1ccc(Cl)c(Cl)c1 [Example 43, N-cyclopropyl-1-((2R,3R,4S,5R,6R)-2-((3,4-dichlorophenyl)thio)-5-hydroxy-6-(hydroxymethyl)-3-methoxytetrahydro-2H-pyran-4-yl)-1H-1,2,3-triazole-4-carboxamide]",2900
12,"[O-][N+]1(CCO[C@@H]2[C@@H](n3cc(-c4cc(F)c(F)c(F)c4)nn3)[C@@H](O)[C@@H](CO)O[C@@H]2Sc2ccc(Cl)c(Cl)c2)CCOCC1 [Example 13, 4-(2-(((2R,3R,4S,5R,6R)-2-((3,4-dichlorophenyl)thio)-5-hydroxy-6-(hydroxymethyl)-4-(4-(3,4,5-trifluorophenyl)-1H-1,2,3-triazol-1-yl)tetrahydro-2H-pyran-3-yl)oxy)ethyl)morpholine 4-oxide]",50
13,"N#CCO[C@@H]1[C@@H](n2cc(-c3cc(F)c(F)c(F)c3)nn2)[C@@H](O)[C@@H](CO)O[C@@H]1Sc1ccc(Cl)c(Cl)c1 [Example 15, 2-(((2R,3R,4S,5R,6R)-2-((3,4-dichlorophenyl)thio)-5-hydroxy-6-(hydroxymethyl)-4-(4-(3,4,5-trifluorophenyl)-1H-1,2,3-triazol-1-yl)tetrahydro-2H-pyran-3-yl)oxy)acetonitrile]",230
14,"CO[C@@H]1[C@@H](n2cc(C(=O)N(C)C3CC3)nn2)[C@@H](O)[C@@H](CO)O[C@@H]1Sc1ccc(Cl)c(Cl)c1 [Example 44, N-cyclopropyl-1-((2R,3R,4S,5R,6R)-2-((3,4-dichlorophenyl)thio)-5-hydroxy-6-(hydroxymethyl)-3-methoxytetrahydro-2H-pyran-4-yl)-N-methyl-1H-1,2,3-triazole-4-carboxamide]",5000
15,"OC[C@H]1O[C@H](Sc2ccc(Cl)c(Cl)c2)C[C@@H](n2cc(-c3cc(F)c(F)c(F)c3)nn2)[C@H]1O [Example 60, (2R,3R,4R,6R)-6-((3,4-dichlorophenyl)thio)-2-(hydroxymethyl)-4-(4-(3,4,5-trifluorophenyl)-1H-1,2,3-triazol-1-yl)tetrahydro-2H-pyran-3-ol]",2200
